# From BindingDB's records for doi:10.7270/Q2B856NC (Burnham Center For Chemical Genomics, 2011)
# pIC50: −log10 of the molar value.
# Molecular target: T1, Apelin receptor (Homo sapiens, UniProt P35414)
# T1 sequence (P35414 whole entry): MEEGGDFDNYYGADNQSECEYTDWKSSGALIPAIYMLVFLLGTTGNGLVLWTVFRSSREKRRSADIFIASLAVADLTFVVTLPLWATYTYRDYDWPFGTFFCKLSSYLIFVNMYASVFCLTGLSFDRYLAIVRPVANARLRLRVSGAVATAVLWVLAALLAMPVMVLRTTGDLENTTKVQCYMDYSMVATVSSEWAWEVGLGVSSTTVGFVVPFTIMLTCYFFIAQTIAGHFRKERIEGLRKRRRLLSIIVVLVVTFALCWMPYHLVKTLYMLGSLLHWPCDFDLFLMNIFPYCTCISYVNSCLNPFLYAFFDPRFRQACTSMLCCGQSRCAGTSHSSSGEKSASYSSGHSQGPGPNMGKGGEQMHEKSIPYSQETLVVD
# Test: apelin receptor antagonists, arrestin read-out – cell-based, luminescent, enzyme-fragment complementation, selectivity assay for CCR6 antagonist project, SAR follow-up (AID 588359)
row,Structure (SMILES),pIC50
1,"OCC12C=CC(O1)c1c2c(O)n(-c2ccccc2-c2ccccc2)c1O (stereo not drawn) [7-(hydroxymethyl)-2-(2-phenylphenyl)-4,7a-dihydro-3aH-octahydro-1H-4,7-epoxyisoindole-1,3-dione]",< 4.18
2,"CC(N=Nc1ccc2ccccc2n1)c1ccccc1O (stereo not drawn) [(6Z)-6-[1-[N'-(2-quinolyl)hydrazino]ethylidene]cyclohexa-2,4-dien-1-one]",5.39
3,CN1C(=O)C(C2CC(c3ccc(Cl)cc3)N=N2)C(=O)N(C)C1=O (stereo not drawn) [SMR000439471],5.14
